Measurements reported in article PMC6364417, “Kinase inhibitor library screening identifies synergistic drug combinations effective in sensitive and resistant melanoma cells” (Journal of Experimental & Clinical Cancer Research : CR, 2019).

Experiments:
Experiment in all cases: Kinase inhibitor library screening, PrestoBlue cell viability, 1 or 10 μM, 72 h
[1] = test system: A375-XP cells (Vemurafenib-resistant); details: A375 XP, 72 h
[2] = test system: A375-GP cells (Dabrafenib-resistant); details: A375 GP, 72 h
A375 cells (parental) = details: A375 Parental, 72 h
501Mel cells (parental) = details: 501Mel Parental, 72 h; for Cell viability in kinase inhibitor library screening, 501Mel Parental, 1μΜ / Cell viability in kinase inhibitor library screening, 501Mel Parental, 10μΜ: in %
Summary of the method: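 Sensitive parental cells and their resistant derivatives were exposed to library compounds for 72 h. Values represent viability as a percentage of untreated cells.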

[3] = test system: 501Mel-XP cells (Vemurafenib-resistant); details: 501Mel XP, 72 h; for Cell viability in kinase inhibitor library screening, 501Mel XP, 1μΜ / Cell viability in kinase inhibitor library screening, 501Mel XP, 10μΜ: in %
[4] = test system: IGR37-GP cells (Dabrafenib-resistant); details: IGR37 GP, 72 h; for Cell viability in kinase inhibitor library screening, IGR37 GP, 1μΜ: in %
IGR37 cells (parental) = details: IGR37 Parental, 72 h; for Cell viability in kinase inhibitor library screening, IGR37 Parental, 1μΜ / Cell viability in kinase inhibitor library screening, IGR37 Parental, 10μΜ: in %
[5] = test system: IGR37-XP cells (Vemurafenib-resistant); details: IGR37 XP, 72 h; for Cell viability in kinase inhibitor library screening, IGR37 XP, 1μΜ: in %
[6] = test system: 501Mel-GP cells (Dabrafenib-resistant); details: 501Mel GP, 72 h; for Cell viability in kinase inhibitor library screening, 501Mel GP, 1μΜ / Cell viability in kinase inhibitor library screening, 501Mel GP, 10μΜ: in %

| SMILES | cell viability (kinase inhibitor library screening) ([1]; 10μΜ) [%] | cell viability (kinase inhibitor library screening) ([2]; 10μΜ) [%] | cell viability (kinase inhibitor library screening) (A375 cells (parental); 10μΜ) [%] | cell viability (kinase inhibitor library screening) (A375 cells (parental); 1μΜ) [%] | cell viability (kinase inhibitor library screening) (501Mel cells (parental); 1μΜ) [%] | cell viability (kinase inhibitor library screening) (501Mel cells (parental); 10μΜ) [%] | cell viability (kinase inhibitor library screening) ([3]; 1μΜ) [%] | cell viability (kinase inhibitor library screening) ([3]; 10μΜ) [%] | cell viability (kinase inhibitor library screening) ([4]; 1μΜ) [%] | cell viability (kinase inhibitor library screening) ([4]; 10μΜ) [%] | cell viability (kinase inhibitor library screening) (IGR37 cells (parental); 1μΜ) [%] | cell viability (kinase inhibitor library screening) (IGR37 cells (parental); 10μΜ) [%] | cell viability (kinase inhibitor library screening) ([5]; 1μΜ) [%] | cell viability (kinase inhibitor library screening) ([5]; 10μΜ) [%] | cell viability (kinase inhibitor library screening) ([6]; 1μΜ) [%] | cell viability (kinase inhibitor library screening) ([6]; 10μΜ) [%] | Cell viability in kinase inhibitor library screening, A375 XP, 1μΜ ([1]; 1μΜ) | Cell viability in kinase inhibitor library screening, A375 XP, 10μΜ ([1]; 10μΜ) | Cell viability in kinase inhibitor library screening, A375 GP, 1μΜ ([2]; 1μΜ) | Cell viability in kinase inhibitor library screening, A375 GP, 10μΜ ([2]; 10μΜ) | other results |
| --- | --- | --- | --- | --- | --- | --- | --- | --- | --- | --- | --- | --- | --- | --- | --- | --- | --- | --- | --- | --- | --- |
| COc1cc2c(Oc3ccc(NC(=O)C4(C(=O)Nc5ccc(F)cc5)CC4)cc3F)ccnc2cc1OCCCN1CCOCC1 [Foretinib (GSK1363089, XL880)] | 0.7 | 0.464 | 0.654 | 71.0 | 84.1 | 0.153 | 47.0 | -0.9 | 91.3 | 0.8 | 85.9 | 0.2 | 81.8 | 0.556 | 64.6 | -0.6 |  |  |  |  | cell viability (kinase inhibitor library screening) ([1]; 1μΜ): 75.2%; cell viability (kinase inhibitor library screening) ([2]; 1μΜ): 67.2% |
| CC(C)NC[C@@H](C(=O)N1CCN(c2ncnc3c2[C@H](C)C[C@H]3O)CC1)c1ccc(Cl)cc1 [GDC-0068] | 85.5 | 79.9 | 77.7 | 104.3 | 103.4 | 81.6 | 85.0 | 36.9 | 97.0 | 79.0 | 102.7 | 90.8 | 95.3 | 23.8 | 92.7 | 56.7 |  |  |  |  |  |
| OCCn1cc(-c2ccc3c(c2)CC/C3=N\O)c(-c2ccncc2)n1 [GDC-0879] |  |  |  |  |  |  |  |  |  |  |  |  |  |  |  |  | 91.2 | 47.1 | 85.8 | 44.0 | Cell viability in kinase inhibitor library screening, A375 Parental, 10μΜ (A375 cells (parental); 10μΜ): 28.9; Cell viability in kinase inhibitor library screening, A375 Parental, 1μΜ (A375 cells (parental); 1μΜ): 49.6; Cell viability in kinase inhibitor library screening, 501Mel Parental, 1μΜ (501Mel cells (parental); 1μΜ): 79.0; Cell viability in kinase inhibitor library screening, 501Mel Parental, 10μΜ (501Mel cells (parental); 10μΜ): 63.5; Cell viability in kinase inhibitor library screening, 501Mel XP, 1μΜ ([3]; 1μΜ): 97.9; Cell viability in kinase inhibitor library screening, 501Mel XP, 10μΜ ([3]; 10μΜ): 89.8; Cell viability in kinase inhibitor library screening, IGR37 GP, 10μΜ ([4]; 10μΜ): 88.9%; Cell viability in kinase inhibitor library screening, IGR37 GP, 1μΜ ([4]; 1μΜ): 99.1; Cell viability in kinase inhibitor library screening, IGR37 Parental, 1μΜ (IGR37 cells (parental); 1μΜ): 66.4; Cell viability in kinase inhibitor library screening, IGR37 Parental, 10μΜ (IGR37 cells (parental); 10μΜ): 27.4; Cell viability in kinase inhibitor library screening, IGR37 XP, 10μΜ ([5]; 10μΜ): 60.4%; Cell viability in kinase inhibitor library screening, IGR37 XP, 1μΜ ([5]; 1μΜ): 110.2; Cell viability in kinase inhibitor library screening, 501Mel GP, 1μΜ ([6]; 1μΜ): 108.3; Cell viability in kinase inhibitor library screening, 501Mel GP, 10μΜ ([6]; 10μΜ): 94.0 |
| Cc1c(CN2CCN(C(=O)[C@H](C)O)CC2)sc2c(N3CCOCC3)nc(-c3cnc(N)nc3)nc12 [GDC-0980 (RG7422)] |  |  |  |  |  |  |  |  |  |  |  |  |  |  |  |  | 31.2 | 3.3 | 33.1 | 4.0 | Cell viability in kinase inhibitor library screening, A375 Parental, 10μΜ (A375 cells (parental); 10μΜ): 2.2; Cell viability in kinase inhibitor library screening, A375 Parental, 1μΜ (A375 cells (parental); 1μΜ): 22.3; Cell viability in kinase inhibitor library screening, 501Mel Parental, 1μΜ (501Mel cells (parental); 1μΜ): 19.3; Cell viability in kinase inhibitor library screening, 501Mel Parental, 10μΜ (501Mel cells (parental); 10μΜ): 1.0; Cell viability in kinase inhibitor library screening, 501Mel XP, 1μΜ ([3]; 1μΜ): 15.9; Cell viability in kinase inhibitor library screening, 501Mel XP, 10μΜ ([3]; 10μΜ): 0.8; Cell viability in kinase inhibitor library screening, IGR37 GP, 10μΜ ([4]; 10μΜ): 2.9%; Cell viability in kinase inhibitor library screening, IGR37 GP, 1μΜ ([4]; 1μΜ): 58.6; Cell viability in kinase inhibitor library screening, IGR37 Parental, 1μΜ (IGR37 cells (parental); 1μΜ): 35.3; Cell viability in kinase inhibitor library screening, IGR37 Parental, 10μΜ (IGR37 cells (parental); 10μΜ): 2.0; Cell viability in kinase inhibitor library screening, IGR37 XP, 10μΜ ([5]; 10μΜ): 1.5%; Cell viability in kinase inhibitor library screening, IGR37 XP, 1μΜ ([5]; 1μΜ): 21.6; Cell viability in kinase inhibitor library screening, 501Mel GP, 1μΜ ([6]; 1μΜ): 21.4; Cell viability in kinase inhibitor library screening, 501Mel GP, 10μΜ ([6]; 10μΜ): 5.1 |
